Measured values from PMC8689140 (Frontiers in Pharmacology, 2021).

Experiments:
[1] = tested on: VMAT2; design: method as in Yang et al., 2021; details: previous study ref Yang et al., 2021; read-out: affinity for VMAT2 IC50; cited from earlier work
[2] = design: method as in Yang et al., 2021; details: SD rats, oral administration at an equimolar dose, previous study ref Yang et al., 2021; cited from earlier work
[3] = tested on: T1, CYP2D6; test: P450 phenotyping, chemical inhibitors in HLMs, CYP2D6; assay type: in vitro ADME, human; details: CYP2D6 probe substrate, 5 µM, specific inhibitor
T1 construct: tissue Corning Co., Ltd (Shanghai, China); host or cells: human liver microsomes
Method: (§1) According to the result of metabolite identification, three metabolites were selected as the targets for metabolic phenotyping. Seven CYP isozymes (CYP1A2, CYP2B6, CYP2C8, CYP2C9, CYP2C19, CYP2D6, and CYP3A4) were investigated using two kinds of methods: chemical inhibitors in human liver microsomes (HLMs) method (Experiment 1) and rhCYP isozymes method (Experiment 2).
(§2) Experiment 1: HLMs were thawed on ice and diluted in100 mM sodium phosphate buffer (pH 7.4) containing 3 mM magnesium chloride. […] After 10 min of preincubation at 37°C, the reactions were initiated by adding 20 µL of NADPH (10 mM) and then incubated at 37 °C in a shaking water bath for 30 min. The samples were prepared in triplicates. The reactions were terminated by adding 600 µL of ice-cold acetonitrile and stored at −20°C until analysis. Control samples without NADPH and 0-time point samples were included. As positive controls, the probe substrates of each P450 isozyme under the same conditions were tested, and specific inhibitors was added. Next, the samples were centrifuged at 13,000 rpm for 10 min, the supernatants were determined by LC–MS/MS.

[4] = tested on: T2, rhCYP CYP2D6; test: P450 phenotyping, rhCYP isozymes, CYP2D6; assay type: in vitro ADME, human; details: rhCYP2D6 probe substrate, 1 µM
T2 construct: purchased Corning Co., Ltd (Shanghai, China)
Description: as §1
(§3) Experiment 2: Each rhCYP isozyme was thawed and diluted as above method. As positive controls, the probe substrates of each P450 isozyme were tested under the same conditions. […] Vx ([…]) is the production rate of metabolites for each rhCYP isozyme.

[5] = tested on: VMAT2; design: method as in Skor et al., 2017; Stahl, 2018; details: Figure 1A ref Skor et al., 2017; Stahl, 2018; cited from earlier work
[6] = design: method as in Skor et al., 2017; Stahl, 2018; details: Figure 1A ref Skor et al., 2017, Stahl, 2018, cited from earlier work; for Plasma Leval (DTBZ): share of HTBZ isomers after deutetrabenazine; for Plasma Leval (TBZ): share of HTBZ isomers after tetrabenazine
[7] = Metabolite identification in human liver microsomes; assay type: in vitro ADME
Method: (§4) Human, rat and dog liver microsomes were carefully thawed on ice prior to the experiment and diluted to 1 mg/ml in100 mM sodium phosphate buffer (pH 7.4) containing 10 mM magnesium chloride. […] After 3 min of preincubation at 37°C, the reactions were initiated by adding 20 µL of NADPH (20 mM) and then incubated at 37°C in a shaking water bath for 60 min. All samples were prepared in duplicates. The reactions were terminated by adding 600 µl of ice-cold acetonitrile and stored at −20°C until analysis. Control samples without NADPH and 0-time point samples were included. As a positive control, testosterone (10 µM) which was metabolized to produce the hydroxylation metabolite was used as a substrate to confirm the activity of the incubation system. Next, the samples were centrifuged at 13,000 rpm for 10 min, the supernatant was separated and evaporated to dryness under a nitrogen stream. The residue was resuspended in 100 μl of acetonitrile, after centrifugation, the supernatants were analyzed by UPLC–UV-HRMS.
(§5) The analysis was performed on Acquity UPLC system coupled with a diode array detector (Waters Corporation, United States) and Q Exactive™ Orbitrap HRMS (Thermo Electron Corporation, United States). […]
(§6) HRMS were operated at positive ion mode using a heating electrospray ionization source (HESI). […] The metabolites were detected by full MS/dd-MS^2 analysis from m/z 100 to m/z 1,000. […]

[8] = Metabolite identification in dog liver microsomes; assay type: in vitro ADME
Method: as §4, §5, §6

[9] = Metabolite identification in rat liver microsomes; assay type: in vitro ADME; details: NADPH, 60 min
Method: as §4, §5, §6

[10] = Metabolite identification in liver microsomes from humans, dogs and rats (stated across species); assay type: in vitro ADME, human, dog, rat; details: range or bound across the three species
Method: as §4, §5, §6

[11] = Metabolite identification in dog plasma after oral dose; assay type: in vivo; details: pooled dog plasma after single oral dose of (+)-13e at 3 μmol/kg
Method: (§7) Male beagle dogs were randomly divided into four groups. […] The dogs were fasted for 12 h before treatment and 4 h after treatment, but they were granted free access to water. Blood was collected from the vein before administration and 0.083 (only for injection groups), 0.25, 0.5, 1, 2, 3, 4, 6, 8, 12 and 24 h, and placed it in heparinized tubes, and centrifuged it at 8,000 rpm for 10 min at 4°C to separate the plasma, which we stored at −20 °C until analysis. The plasma samples were pretreated by protein precipitation with acetonitrile and quantitated by the validated LC-MS/MS (Shimadzu Exion-Triple Quad 4500) method.
Then, four volumes of acetonitrile (containing 0.1% formic acid) were added into the pooled plasma samples to precipitate the proteins. After vortex-mixing and centrifugation, the supernatants were dried under a nitrogen stream. Then, the residues were resuspended in 100 μl of acetonitrile/water (1:1, v/v) with 0.1% formic acid. After centrifugation, the supernatants were analyzed by UPLC–UV-HRMS for metabolite identification.
The analysis was performed on Acquity UPLC system coupled with a diode array detector (Waters Corporation, United States) and Q Exactive™ Orbitrap HRMS (Thermo Electron Corporation, United States). […] The mobile phase was composed water containing 0.1% formic acid (A) and acetonitrile containing 0.1% formic acid (B). The flow rate was 0.40 ml/min. The elution conditions were the following linear gradient for metabolite identify in HLMs: 0–1 min: 95% A, 1–2 min: 80% A, 2–5 min: 80% A, 5–8 min: 70% A, 8–12 min: 30% A, 12–15 min: 5% A, 15–16 min: 95% A, and 16–18 min: 95% A. The elution conditions were the following for metabolite identify in dog plasma: 0–1 min: 95% A, 1–30 min: 70% A, 30–32 min: 30% A, 32–33 min: 5% A, 33–35 min: 95% A, and 35–40 min: 95% A.
HRMS were operated at positive ion mode using a heating electrospray ionization source (HESI). The optimized operating parameters were set as follows: sheath gas (nitrogen) flow rate of 35 psi, aux gas (nitrogen) flow rate of 10 psi, HESI and capillary temperature of 350°C, and spray voltage of 3.5 kV. The metabolites were detected by full MS/dd-MS^2 analysis from m/z 100 to m/z 1,000. The resolution of the first-class scan and second-class scan was 70 000 and 17 500, respectively. The collision energy for collision induced dissociation (NCE) was set to 20, 40 and 60 eV. The loop count was set to five and the dynamic exclusion duration to 10 s. […] Thermo Compound Discover software was used to identify expected and unknown metabolites, and we finally proposed (+)-13e metabolic pathways based on the deduced metabolites and relevant drug biotransformation knowledge.

[12] = tested on: T3, CYP3A4; test: P450 phenotyping, chemical inhibitors in HLMs, CYP3A4; assay type: in vitro ADME, human; details: CYP3A4 probe substrate, 2 µM, specific inhibitor
T3 construct: tissue Corning Co., Ltd (Shanghai, China); host or cells: human liver microsomes
Method: as §1, §2

[13] = tested on: T4, rhCYP CYP3A4; test: P450 phenotyping, rhCYP isozymes, CYP3A4; assay type: in vitro ADME, human; details: rhCYP3A4 probe substrate, 0.4 µM
T4 construct: purchased Corning Co., Ltd (Shanghai, China)
Description: as §1, §3

[14] = target: T5, rat VMAT2 (Rattus norvegicus, UniProt Q01827); test: [3H]DA uptake assay in rat striatal synaptosomes; assay type: biochemical; details: [3H]DA uptake, rat striatal synaptosomes
T5 construct: in vitro [^3H]DA uptake assay in rat striatal synaptosomes; from tissue; host or cells: rat striatal synaptosomes / vesicular suspension
Method: [^3H]DA (dihydroxyphenylethyethylamine, 3,4-[ring-2,5,6-^3H]; specific activity, 28.0 Ci/mmol) was purchased from Perkin Elmer. […] After drying, the filter plate was sealed with unifilter-96 back sealing tape and added 50 μl of microscint-20 (Perkin Elmer), then sealed the top of the filter plate with TopSeal-A. The radioactivity was measured by a TopCount scintillation counter. GraphPad Prism 5.0 was used to analyze data.

[15] = tested on: locomotor activity of rats; test: Dose-dependent effects on locomotor activity in rats; assay type: in vivo, rat; details: SD rats, single oral gavage 5.2 μmol/kg, 0.5-[…] after dosing
Method: Before administration, animals were transported to the test room and allowed to acclimate for at least 1 h. Immediately after drug administration, rats were placed into activity chambers to assess their basal locomotor activity using the TopScan monitoring system. The total travel distance was recorded from 0.5 to 1.5 h after administration in intervals of 10 min.

[16] = PK in dogs after single oral or intravenous dose; assay type: in vivo, dog; details: dog
Method: as §7
The system consisted of an Exion UHPLC system (Shimadzu, Japan) and a Triple Quad 4500 mass spectrometer (AB Sciex, United States) with an electrospray ionization source. Multiple reaction monitoring in the positive ionization mode was applied to measure analytes. Chromatographic separation was performed on a Acquity BEH C18 column (50 × 2.1 mm i. d., 1.7 μm, Waters, United States). The mobile phase was composed of 0.1% FA in water (A) and 0.1% FA in acetonitrile (B), and the flow rate was 0.4 ml/min. The elution conditions were the following linear gradient: 0–0.4 min: 90% A, 0.4–0.6 min: 60% A, 0.6–1.2 min: 10% A, 1.2–2.2 min: 10% A, 2.2–2.3 min: 90% A, 2.3–3.0 min: 90% A. The optimized parameters were as follows: the spray voltage 5.5 kV, source temperature 550 °C, pressure of source gas 1 and gas 2: 55psi, pressure of curtain gas: 30psi, and the DP, EP and CE voltage was 30,6 and 40 eV, respectively.

[17] = no peak in UV, abundance by mass spectrometry

T5 sequence (Q01827 whole entry): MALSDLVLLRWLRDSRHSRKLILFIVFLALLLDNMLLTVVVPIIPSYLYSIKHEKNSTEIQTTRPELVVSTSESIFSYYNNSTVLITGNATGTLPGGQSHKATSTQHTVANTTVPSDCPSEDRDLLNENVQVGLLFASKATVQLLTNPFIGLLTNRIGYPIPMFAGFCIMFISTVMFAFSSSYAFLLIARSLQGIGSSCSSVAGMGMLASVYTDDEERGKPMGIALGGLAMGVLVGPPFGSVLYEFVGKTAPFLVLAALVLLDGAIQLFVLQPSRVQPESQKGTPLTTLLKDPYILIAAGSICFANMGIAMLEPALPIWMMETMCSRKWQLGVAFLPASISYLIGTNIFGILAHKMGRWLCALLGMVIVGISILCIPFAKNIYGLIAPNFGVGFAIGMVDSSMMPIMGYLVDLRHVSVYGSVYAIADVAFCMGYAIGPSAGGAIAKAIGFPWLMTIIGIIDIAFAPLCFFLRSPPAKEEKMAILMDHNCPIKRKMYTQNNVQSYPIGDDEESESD

COc1cc2c(cc1OCC(F)(F)F)CCN1CC(CC(C)C)C(O)CC21 (racemic) [13e, 3-isobutyl-10-methoxy-9-(2,2,2-trifluoroethoxy)-1,3,4,6,7,11b-hexahydro-2H-pyrido [2,1-a]isoquinolin-2-ol]
IC50 [1]: 5.13 nM | concentration in the brain higher than that of HTBZ [2]: 2 fold

COc1ccc2c(c1)[C@]13CCCC[C@@H]1[C@H](C2)N(C)CC3 [Dextromethorphan]
%Inhibation in HLM [3]: 90.7% | CL int in rhCYP [4]: 13.1 µL/min/pmol

COc1cc2c(cc1OC)[C@H]1C[C@@H](O)[C@H](CC(C)C)CN1CC2 [HTBZ, (+)-α-dihydrotetrabenazine]
VMAT2 affinity [5]: High | Plasma Leval (DTBZ) [6]: 1.7% | Plasma Leval (TBZ) [6]: 1.8%

CC(C)CC1CN2CCc3cc(OCC(F)(F)F)c(O)cc3C2CC1O (stereo not shown) [M373]
Relative abundance Human (*detected by mass spectrometry) [7, 17]: 0.69^* % | Relative abundance Dog (*detected by mass spectrometry) [8, 17]: 0.46^* % | Relative abundance, UV area % Rat [9]: 2.6% | relative abundance in liver microsomes from humans, dogs, and rats [10]: less than 3.2%

COc1cc2c(cc1OCC(F)(F)F)CCN1CC(CC(C)(C)O)C(O)CC21 (stereo not shown) [M403-2]
Relative abundance, UV area % Human ([7]; NADPH, 60 min, UV area): 12.11% | Relative abundance, UV area % Dog ([8]; NADPH, 60 min, UV area): 10.01% | Relative abundance, UV area % Rat [9]: 8.78% | Relative abundance UV area % in dog plasma [11]: 9.69%

CC(C)C[C@@H]1CN2CCc3cc(OCC(F)(F)F)c(OC4OC(C(=O)O)C(O)C(O)C4O)cc3[C@H]2C[C@H]1O (stereo partly shown) [M549]
Relative abundance UV area % in dog plasma [11]: 7.47%

COc1cc2c(cc1OCC(F)(F)F)CCN1CC(CC(C)C)C(OC3OC(C(=O)O)C(O)C(O)C3O)CC21 (stereo not shown) [M563]
Relative abundance UV area % in dog plasma [11]: 9.92%

CC(C)(O)C[C@@H]1CN2CCc3cc(OCC(F)(F)F)c(OC4OC(C(=O)O)C(O)C(O)C4O)cc3[C@H]2C[C@H]1O (stereo partly shown) [M565]
Relative abundance UV area % in dog plasma [11]: 10.2%

COc1cc2c(cc1OCC(F)(F)F)CCN1C[C@@H](CC(C)(C)OC3OC(C(=O)O)C(O)C(O)C3O)[C@H](O)C[C@H]21 (stereo partly shown) [M579-1]
Relative abundance UV area % in dog plasma [11]: 3.43%

Cc1ncc2n1-c1ccc(Cl)cc1C(c1ccccc1F)=NC2 [Midazolam]
%Inhibation in HLM [12]: 84.7% | CL int in rhCYP [13]: 9.13 µL/min/pmol

COc1cc2c(cc1OC)C1CC(=O)C(CC(C)C)CN1CC2 (stereo not shown) [TBZ, tetrabenazine, reference compound]
IC90 [14]: 96.9 nM

COc1cc2c(cc1OC)[C@H]1C[C@@H](OC(=O)[C@@H](N)C(C)C)[C@H](CC(C)C)CN1CC2 [VBZ, Valbenazine ditosylate, reference compound]
reduction rate (RR) of locomotion [15]: 97.9% | V, V/F ([16]; single intravenous dose 0.6 μmol/kg): 2.8 ± 0.5 L/kg | clearance ([16]; single intravenous dose 0.6 μmol/kg, read-out: Cl, Cl/F (converted)): 6 mL/min/kg | V, V/F ([16]; single oral dose 3 μmol/kg): 3.5 ± 0.8 L/kg | bioavailability ([16]; male, beagle, plasma, dogs, oral 3 μmol/kg vs intravenous 0.6 μmol/kg, read-out: absolute oral bioavailability): 74.1% | CL/F ([16]; male, beagle, plasma, 3 umol/kg, single oral dose 3 μmol/kg): 8 mL/min/kg

COc1cc2c(cc1OC)[C@H]1C[C@H](O)[C@H](CC(C)C)CN1CC2 [[+]-β-HTBZ]
VMAT2 affinity [5]: High | Plasma Leval (DTBZ) [6]: 43.8% | Plasma Leval (TBZ) [6]: 37.2%

COc1cc2c(cc1OC)[C@@H]1C[C@H](O)[C@@H](CC(C)C)CN1CC2 [[-]-α-HTBZ]
VMAT2 affinity [5]: Low | Plasma Leval (DTBZ) [6]: 48.3% | Plasma Leval (TBZ) [6]: 55.6%

COc1cc2c(cc1OC)[C@@H]1C[C@@H](O)[C@@H](CC(C)C)CN1CC2 [[-]-β-HTBZ]
VMAT2 affinity [5]: Low | Plasma Leval (DTBZ) [6]: 6.2% | Plasma Leval (TBZ) [6]: 5.4%
